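96-well plates; 48 h exposure; 5 concentrations. Endpoints by linear interpolation between flanking doses. Not reached: highest tested concentration assigned. GI50 is the concentration that inhibits growth by half.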 Activity calls are given as the source filed them. Rule as the data show it: active = GI50 up to about 1.1 µM and inactive = higher.

Experimental findings from ChEMBL document CHEMBL1201862, “PubChem BioAssay data set” (2004) are described below.

Test systems include KM12; SF-268; MDA-MB-435; SN12C; MOLT-4; HCT-15; HOP-92; SW-620; SK-OV-3; TK-10; NCI-H226; UACC-62; SR; Malme-3M; BT-549; COLO 205; SK-MEL-5; A498; RPMI-8226.
Holding throughout (test): DTP human tumour cell line panel, 48 h

For orientation: GI50 means the concentration giving 50% growth inhibition. `CC12CCC(=O)N1c1cncnc1N2` (stereo not given): the GI50 in the test with KM12 was > 10 µM (inactive); in the test on SF-268 it was > 10 µM (inactive); with MDA-MB-435 it was > 10 µM (inactive); in the test with SN12C it was > 10 µM (inactive); in the test on MOLT-4 it was > 10 µM (inactive); with HCT-15, over 10 µM. Moreover, the GI50 in the test on HOP-92, with SW-620, in the test with SK-OV-3, in the test with TK-10, in the test with NCI-H226 and in the test with UACC-62 was > 10 µM (inactive) each time. The GI50 with SR, in the test on Malme-3M and with BT-549 was > 10 µM (inactive) each time.
Turning to `CCOC(=O)CCCn1nnc(C(=O)OCC)c1C(=O)OCC`, the GI50 in the test with KM12, with SF-268, in the test with COLO 205, in the test with MDA-MB-435, with SN12C and in the test on MOLT-4 was > 100 µM (inactive) each time. Besides, the GI50 with HCT-15 was over 100 µM; in the test on HOP-92, > 100 µM (inactive); in the test on SW-620, > 100 µM (inactive); with SK-MEL-5, > 100 µM (inactive); in the test on TK-10 it was > 100 µM (inactive); in the test with NCI-H226, > 100 µM (inactive). In addition, the GI50 with UACC-62, in the test on SR, in the test on Malme-3M and with BT-549 was > 100 µM (inactive) in each case.
In the case of `COC1CC2C=CC3C4OC2(/C(C)=C/C(C)C(C(C)O)OC1=O)C3C(O)C(C)C4OC(=O)c1ccc[nH]1` (stereo not given), the GI50 was 21 µM (inactive) with KM12; > 100 µM (inactive) with SF-268; > 100 µM (inactive) with COLO 205; 58.1 µM (inactive) in the test on MDA-MB-435; > 100 µM (inactive) in the test on SN12C; 23.4 µM (inactive) in the test with MOLT-4. The GI50 with HCT-15 is 92.5 µM; in the test on HOP-92 it was > 100 µM (inactive); in the test with SW-620 it was > 100 µM (inactive); in the test on A498 it was > 100 µM (inactive); in the test with SK-MEL-5, 38.2 µM (inactive); in the test on TK-10 it was > 100 µM (inactive). For the same compound, the GI50 in the test on UACC-62 was > 100 µM (inactive); in the test with SR, 26.5 µM (inactive); in the test on BT-549 it was 81.5 µM (inactive); with RPMI-8226, 35.6 µM (inactive).
As for `O=C(Nc1ccc(C(F)(F)F)cc1[N+](=O)[O-])c1cccnc1`, the GI50 is 2.57 µM (inactive) in the test on KM12; 4.07 µM (inactive) in the test with SF-268; 4.84 µM (inactive) in the test on COLO 205; 0.537 µM (active) in the test on MDA-MB-435; 7.83 µM (inactive) with SN12C; 9.1 µM (inactive) in the test on MOLT-4. The GI50 in the test on HCT-15 was 2.91 µM; in the test on SW-620, 3.14 µM (inactive); in the test on A498, 18.3 µM (inactive); in the test with SK-OV-3 it was 6.35 µM (inactive); in the test on SK-MEL-5, 4.06 µM (inactive); in the test with TK-10, 5.46 µM (inactive). Besides, the GI50 in the test with NCI-H226 was 22.8 µM (inactive); in the test with UACC-62, 3.76 µM (inactive); in the test with SR, 1.01 µM (active); with Malme-3M, 2.15 µM (inactive); in the test with BT-549, 7.06 µM (inactive); in the test on RPMI-8226 it was 5.08 µM (inactive).
For `C=C(C)[C@@H]1CCc2c(c(C)cc(O)c(=O)c2O)C1`, the GI50 in the test with KM12 is 3.03 µM (inactive); in the test on SF-268, 2.88 µM (inactive); with COLO 205, 1.63 µM (inactive); in the test with MDA-MB-435 it was 3.13 µM (inactive); with SN12C, 0.363 µM (active); in the test with MOLT-4 it was 1.4 µM (inactive). The GI50 with HCT-15 is 0.0838 µM; in the test with HOP-92, 0.573 µM (active); in the test with SW-620, 0.643 µM (active); with SK-OV-3 it was 1.49 µM (inactive); in the test on SK-MEL-5 it was 0.564 µM (active); in the test on TK-10, 13.1 µM (inactive). In addition, the GI50 with NCI-H226 is 2.72 µM (inactive); in the test on UACC-62, 1.6 µM (inactive); in the test on SR it was 0.515 µM (active); in the test on Malme-3M, 3.43 µM (inactive); in the test on BT-549, 8.95 µM (inactive); in the test on RPMI-8226 it was 3.57 µM (inactive).
With `COc1ccc(N2C(=O)c3cc([N+](=O)[O-])cnc3S2(=O)=O)cc1`, the GI50 with KM12, in the test with SF-268, in the test with COLO 205, in the test with MDA-MB-435, in the test on SN12C and in the test with MOLT-4 was > 100 µM (inactive) each time. The GI50 with HCT-15 was over 100 µM; in the test with HOP-92 it was > 100 µM (inactive); in the test on SW-620, > 100 µM (inactive); with SK-OV-3, > 100 µM (inactive); in the test on TK-10, > 100 µM (inactive); in the test on NCI-H226, > 100 µM (inactive). The GI50 in the test on UACC-62, in the test on SR, with Malme-3M, with BT-549 and with RPMI-8226 was > 100 µM (inactive) throughout.
Regarding `O=C(CCc1ccc(O)cc1)NCCc1ccc(O)cc1`, the GI50 in the test with KM12, with SF-268, in the test with COLO 205, in the test on MDA-MB-435, in the test with SN12C and with MOLT-4 was > 100 µM (inactive) each time. The GI50 with HCT-15 was over 100 µM; in the test on HOP-92 it was > 100 µM (inactive); in the test on A498, > 100 µM (inactive); in the test with SK-OV-3, > 100 µM (inactive); in the test on SK-MEL-5, > 100 µM (inactive); in the test with TK-10, > 100 µM (inactive). In addition, the GI50 in the test on NCI-H226 was > 100 µM (inactive); in the test with UACC-62, > 100 µM (inactive); in the test on SR it was > 100 µM (inactive); in the test on Malme-3M it was > 100 µM (inactive); in the test on BT-549, 62.4 µM (inactive).
As for `CN(C)C(=O)CO/N=C1/C(=C2/C(=O)Nc3ccccc32)Nc2ccccc21`, the GI50 with KM12 is 0.032 µM (active); in the test with SF-268 it was > 100 µM (inactive); with COLO 205 it was 31.6 µM (inactive); with MDA-MB-435 it was > 100 µM (inactive); in the test on SN12C it was > 100 µM (inactive); with MOLT-4 it was > 100 µM (inactive). For the same compound, the GI50 is over 100 µM with HCT-15; > 100 µM (inactive) with HOP-92; > 100 µM (inactive) in the test on SW-620; > 100 µM (inactive) in the test on SK-OV-3; 37.3 µM (inactive) with SK-MEL-5; 40.9 µM (inactive) with TK-10. In addition, the GI50 was > 100 µM (inactive) in the test with NCI-H226; > 100 µM (inactive) in the test with UACC-62; 88.7 µM (inactive) in the test on SR; > 100 µM (inactive) with Malme-3M; 65.9 µM (inactive) with BT-549; > 100 µM (inactive) in the test on RPMI-8226.
On to `C=CC(=O)Nc1ccc(NC(=O)C=C)c2c1C(=O)c1ccccc1C2=O`, for which the GI50 in the test with KM12 is 12 µM (inactive); with COLO 205 it was > 100 µM (inactive); in the test with MDA-MB-435, > 10 µM (inactive); in the test with SN12C, 35.8 µM (inactive); in the test with MOLT-4 it was 21.6 µM (inactive); with HCT-15 it was 41.9 µM. Besides, the GI50 is 26.4 µM (inactive) with SW-620; > 100 µM (inactive) in the test on A498; 60.1 µM (inactive) in the test on SK-MEL-5; 23.2 µM (inactive) in the test with TK-10; 21.4 µM (inactive) in the test with UACC-62; 28.1 µM (inactive) with SR. Besides, the GI50 is > 100 µM (inactive) in the test with Malme-3M, 29.9 µM (inactive) with BT-549 and 3.03 µM (inactive) in the test with RPMI-8226.
